Source: publication PMC12298648, “An Evaluation of the Cytotoxicity and Safety Profile of Usnic Acid for a Broad Panel of Human Cancers and Normal Cells with Respect to Its Enantiospecificity” (Molecules, 2025)
In brackets after ≈: the same amount, converted by molar mass. Where two headings read alike, the source gives them in different places.

Legend:
[1] = system: CCD 841 CoN; test: MTT viability assay, normal colon epithelial cells; format: cell-based, human; conditions: for Cell viability: CCD 841 CoN, 24 h; for IC50: Homo sapiens, CCD-841CoN
Text: (§1) Cell lines of different origins were used in the study and grouped as follows: prostate panel (human prostate carcinomas: DU145, derived from metastatic site: brain; grade IV PC3, derived from metastatic site: bone; LNCaP, derived from the metastatic site: lymph node; prostate epithelial, PNT2), colon panel (colorectal adenocarcinomas: HT29, originating from a primary tumor; Duke’s type C DLD-1, with the potential to lymph node metastasis; highly metastatic HCT116; colon epithelial cells CCD 841 CoN), thyroid panel (follicular thyroid carcinoma FTC133, anaplastic thyroid carcinoma 8505C, papillary thyroid carcinoma TPC-1, normal thyroid follicular epithelial Nthy-ori 3–1), breast panel (ER-positive breast adenocarcinoma MCF7, ER-negative breast adenocarcinoma MDA-MB-231, breast epithelial MCF10A), brain panel (neuroblastoma SH-SY5Y, glioblastoma U-87 MG, murine astrocytes C8D1A). All cell lines were purchased from Merck (Darmstadt, Germany).
(§2) Cells were grown under standard conditions (37 °C, 5% CO2) and culture media (DMEM/F12 for PNT2, PC3, FTC133, 8505 C, MDA-MB-231, TPC-1; DMEM Low Glucose for DU145; DMEM High Glucose for HCT116, DLD-1, SH-SY5Y, U87MG, C8D1A; MEM with NEAA for MCF7; MEM for CCD 841 CoN; McCoy’s for HT29; RPMI1640 with sodium pyruvate for LNCaP; DMEM/F12 with 20 ng/mL epidermal growth factor (EGF), 10 μg/mL insulin, 0.5 μg/mL hydrocortisone, 100 ng/mL cholera toxin) for MCF10A), supplemented with 10% fetal bovine serum (FBS) or 5% donor horse serum for MCF10A, and 1% antibiotics solution (10,000 U penicillin and 10 mg streptomycin/mL). The tested substances were prepared as 10 mg/mL stock solutions in DMSO and further diluted in the culture media to the working concentrations. Cells were treated with UA enantiomers at the concentration range of 0–50 µg/mL. The influence of DMSO on cell viability was also examined, with the final concentration […], and no toxic effect was noted.
(§3) The cells were seeded onto 96-well plates at a density of 1.5 × 10^4 cells/well. After 24 h UA enantiomers were added. Cell viability was determined after 24, 48, and 72 h by the MTT assay, as described previously. Doxorubicin was used as a reference cytostatic drug. All analyses were performed in triplicate; cell viability was expressed as % of control, untreated cells (mean ± SD), and IC50 values (concentration at which cell viability is inhibited by 50%), if possible.

[2] = system: TPC-1; test: MTT viability assay, TPC-1 papillary thyroid carcinoma cells; format: cell-based, human; conditions: for IC50: Homo sapiens, TPC1; for Cell viability: TPC-1, 24 h
Text: as §1, §2, §3
(§4) The selectivity index (SI) was calculated, if possible, by dividing the IC50 value obtained for non-cancerous cells line by the IC50 values obtained for appropriate cancer cell line, as described previously. […] The values above 3 indicate good selectivity.

[3] = system: FTC133; test: MTT viability assay, FTC133 follicular thyroid carcinoma cells; format: cell-based, human; conditions: for Cell viability: FTC-133, 24 h; for IC50: Homo sapiens, FTC-133
Text: as §1, §2, §3, §4

[4] = system: DU145 cells; conditions: cited from earlier work
[5] = system: HT29 cells; conditions: cited from earlier work
[6] = system: SH-SY5Y; test: MTT viability assay, neuroblastoma SH-SY5Y cells; format: cell-based, human; conditions: SHSY5Y, 24 h
Text: as §1, §2, §3

[7] = system: MCF10A; test: MTT viability assay, normal breast epithelial cells; format: cell-based, human; conditions: for IC50: Homo sapiens, MCF-10A, MCF10A normal cells; for Cell viability: MCF10A, 24 h
Text: as §1, §2, §3

[8] = system: HepG2 cells; set-up: method as in PMID 40368021; conditions: cited from earlier work
[9] = system: glioblastoma U251 cells; set-up: method as in PMID 18558490; conditions: U251, 72 h, cited from earlier work
[10] = system: HCT116; test: MTT viability assay, HCT116 colon cancer cells; format: cell-based, human; conditions: for Cell viability: HCT116, 24 h; for IC50: Homo sapiens, HCT-116
Text: as §1, §2, §3

[11] = system: WM793 cells; set-up: method as in PMID 34577645; conditions: WM793, 48 h; cited from earlier work
[12] = system: MCF7 cells; set-up: method as in not printed ('another' study); conditions: MCF7, 72 h, ref not given ('another' study), cited from earlier work
[13] = recalculated from µM by the authors

CC(=O)C1=C(O)C=C2Oc3c(C(C)=O)c(O)c(C)c(O)c3[C@@]2(C)C1=O [UA(+), (+)-usnic acid]
Cell viability ([1]; 2.5 µg/mL): 104.22 % of control | Cell viability ([1]; 5 µg/mL): 103.61 % of control | Cell viability ([1]; 10 µg/mL): 99.72 % of control | Cell viability ([1]; 20 µg/mL): 111.77 % of control | Cell viability ([1]; 30 µg/mL): 101.26 % of control | Cell viability ([1]; 40 µg/mL): 95.35 % of control | Cell viability ([1]; 50 µg/mL): 96.52 % of control | IC50 ([1]; 48 h): > 50 µg/mL | IC50 ([1]; 72 h): > 50 µg/mL | IC50 ([2]; TPC-1, 48 h): > 50 µg/mL | IC50 ([2]; TPC-1, 72 h): 28.2 µg/mL (≈ 81.9 µM) | selectivity index (SI) ([2]; IC50 Nthy ori 3-1 / IC50 TPC-1, 72 h): 1.18 | Cell viability ([2]; 2.5 µg/mL): 101.62 % of control | Cell viability ([2]; 5 µg/mL): 105.96 % of control | Cell viability ([2]; 10 µg/mL): 105.31 % of control | Cell viability ([2]; 20 µg/mL): 97.02 % of control | Cell viability ([2]; 30 µg/mL): 95.96 % of control | Cell viability ([2]; 40 µg/mL): 91.23 % of control | Cell viability ([2]; 50 µg/mL): 87.50 % of control | Cell viability ([3]; 2.5 µg/mL): 92.33 % of control | Cell viability ([3]; 5 µg/mL): 89.00 % of control | Cell viability ([3]; 10 µg/mL): 89.83 % of control | Cell viability ([3]; 20 µg/mL): 93.83 % of control | Cell viability ([3]; 30 µg/mL): 74.75 % of control | Cell viability ([3]; 40 µg/mL): 75.75 % of control | Cell viability ([3]; 50 µg/mL): 78.08 % of control | IC50 ([3]; FTC133, 48 h): > 50 µg/mL | IC50 ([3]; FTC133, 72 h): 35.1 µg/mL (≈ 102 µM) | selectivity index (SI) ([3]; IC50 Nthy ori 3-1 / IC50 FTC133, 72 h): 0.95 | IC50 ([4]; DU145, 48 h, recalculated from µM by the authors): 14.5 µg/mL | IC50 ([4]; DU145, 48 h, read-out: IC50): 42.1 µM | IC50 ([4]; DU145, 72 h, recalculated from µM by the authors): 19.7 µg/mL | IC50 ([4]; DU145, 72 h, read-out: IC50): 57.4 µM | IC50 ([5]; HT29, recalculated from µM by the authors, ref 21): 24.1 µg/mL | IC50 ([5]; HT29, recalculated from µM by the authors, ref 22): 34.3 µg/mL | IC50 ([5]; HT29, ref 21, read-out: IC50): 70 µM | IC50 ([5]; HT29, ref 22, read-out: IC50): 99.7 µM | Cell viability ([6]; 2.5 µg/mL): 99.49 % of control | Cell viability ([6]; 5 µg/mL): 97.56 % of control | Cell viability ([6]; 10 µg/mL): 97.95 % of control | Cell viability ([6]; 20 µg/mL): 96.15 % of control | Cell viability ([6]; 30 µg/mL): 95.77 % of control | Cell viability ([6]; 40 µg/mL): 92.95 % of control | Cell viability ([6]; 50 µg/mL): 96.54 % of control | IC50 ([7]; 48 h): > 50 µg/mL | IC50 ([7]; 72 h): 44.8 µg/mL (≈ 130 µM) | Cell viability ([7]; 2.5 µg/mL): 95.69 % of control | Cell viability ([7]; 5 µg/mL): 98.53 % of control | Cell viability ([7]; 10 µg/mL): 94.31 % of control | Cell viability ([7]; 20 µg/mL): 97.06 % of control | Cell viability ([7]; 30 µg/mL): 97.25 % of control | Cell viability ([7]; 40 µg/mL): 97.35 % of control | Cell viability ([7]; 50 µg/mL): 94.02 % of control | IC50 (hepatotoxicity) ([8]; HepG2, 48 h): 28.2 µg/mL (≈ 81.9 µM) | IC50 (hepatotoxicity) ([8]; HepG2, 72 h): 24.4 µg/mL (≈ 70.9 µM) | IC50 [9, 13]: 6.7 µg/mL | IC50 ([9]; read-out: IC50): 19.5 µM | Cell viability ([10]; 2.5 µg/mL): 100.35 % of control | Cell viability ([10]; 5 µg/mL): 103.97 % of control | Cell viability ([10]; 10 µg/mL): 85.60 % of control | Cell viability ([10]; 20 µg/mL): 71.99 % of control | Cell viability ([10]; 30 µg/mL): 68.16 % of control | Cell viability ([10]; 40 µg/mL): 67.02 % of control | Cell viability ([10]; 50 µg/mL): 61.49 % of control | IC50 ([10]; HCT116, 48 h): 26.4 µg/mL (≈ 76.7 µM) | IC50 ([10]; HCT116, 72 h): 10.5 µg/mL (≈ 30.5 µM) | IC50 [11]: 30.05 µg/mL (≈ 87.3 µM) | IC50 [12, 13]: 36.3 µg/mL | IC50 ([12]; read-out: IC50): 105 µM
